Experimental data published in PMC12667295, “A surrogate barrier model for high-throughput blood-brain barrier permeability prediction: integrating LLC-PK1-MOCK/MDR1 Cells and lysosomal trapping correction” (Drug Delivery, 2025).
Read-outs that look alike come from different tables or passages of the source.

Tests used:
P-gp (human MDR1) [1] = assay: Bidirectional transport across LLC-PK1-MDR1 monolayer stably expressing human MDR1 (P-gp) (Transwell); conditions: pig, LLC-PK1, pH 7.4;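 also: 2 h incubation at 37 °C, receiver HBSS with 10 mM Hepes plus 1% BSA, LC-MS/MS of donor and receiver, recovery as receiver plus donor amount over initial donor amount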
Experimental: (§1) The overexpression and functional activity of P-glycoprotein (P-gp) in the LLC-PK1-MDR1 cells were rigorously validated through multiple methods.
(§2) Cells were passaged at 80−90% confluence (every 2−3 days) using trypsin-EDTA solution. […] The culture medium was replaced every other day, including 200 µL culture medium in the apical and 850 µL cell culture medium in the basolateral side. LLC-PK1 MOCK cells were used at passages of 3−30. LLC-PK1-MDR1 cells were cultured and passaged in the same manner as LLC-PK1 cells except at the density of 1 × 10^4 cells per well. LLC-PK1-MDR1 cells were used at passages of 3−25. For LLC-PK1 MOCK cells and LLC-PK1-MDR1 cells, the experiments were performed on the 4th and 7th day after seeding.
(§3) Monitoring permeability of positive control drugs. […] Samples were collected from the donor well at the start of the incubation (50 µL) as C0, and from the donor and receiver wells at the end of the incubation (50 µL). All samples were stored at - 40 °C for LC-MS/MS analysis.
(§4) Bidirectional transport experiments. […] The transwell experiments were conducted following above-mentioned procedure. […] When the recovery rate of the tested drug is below 80%, the possibility of intracellular accumulation should be considered. The polycarbonate (PC) membrane where cells are grown should be carefully peeled off from the cell culture medium and placed in 100 µL of HBSS buffer solution. […] The process was carried out on ice to prevent heat-induced degradation, applying a power in the range of 300 W for a total duration of 20 minutes. Thereafter, a quantitative analysis of the intracellular drug was conducted, and the drug recovery rate was recalculated based on this analysis.
(§5) The apparent permeability coefficient (Papp, cm/s) was calculated for each transport direction, A-B and B-A, using the following equation: Papp=dQ/dt×1/A×C0 where dQ/dt is the permeation rate (µmol/s), A is the surface area of the insert (0.33 cm^2, Corning), and C0 is the initial donor concentration (µM).
(§6) The efflux ratio (ER) is calculated as the ratio of Papp (B-A)/Papp (A-B). Recovery=TRcumrf+Cdf×VD/Cdi×VD×100% Where TRcumrf is the cumulative transported mass in the receiver chamber at the end of the incubation (nmol), Cdf is the concentration of the drug in the donor chamber at the end of the incubation (μM), VD is the volume of the donor chamber (mL), and Cdi is the initial concentration of the drug in the donor chamber (μM).
(§7) The method of the bidirectional transport experiment was the same as before.

[2] = cited from earlier work
[3] = Bidirectional transport across LLC-PK1 MOCK monolayer (Transwell); conditions: pig;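 also: compound quantified by LC-MS/MS in donor and receiver wells, efflux ratio as B-A over A-B Papp, recovery relative to initial donor amount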
Experimental: as §2
(§8) Samples were collected from the donor well at the start of the incubation (50 µL) as C0, and from the donor and receiver wells at the end of the incubation (50 µL). All samples were stored at - 40 °C for LC-MS/MS analysis.
as §4, §5, §6, §7

in vitro = conditions: pig; for recovery at 2 h, 2 µM: pH 7.4
Experimental: as §2, §8, §4, §5, §6, §7

P-gp (human MDR1) [4] = assay: in vitro; conditions: pig
Experimental: as §1, §2, §3, §4, §5, §6, §7

[5] = LLC-PK1, pH 7.4, Papp A-B, LLC-PK1 MOCK, 2 µM, 2 h, mean ± s, n = 3, BLQ = below 2 nM
[6] = LLC-PK1 MOCK cell monolayer (Transwell)

| Compound | Papp A→B at 2 h, 2 µM (P-gp (human MDR1) [1]) [×10⁻⁶ cm/s] | Papp B→A at 2 h, 2 µM (P-gp (human MDR1) [1]) [×10⁻⁶ cm/s] | Papp B→A at 2 h, 2 µM ([3]; LLC-PK1, pH 7.4) [×10⁻⁶ cm/s] | Papp A→B at 2 h, 2 µM [3, 5] [×10⁻⁶ cm/s] | Kp, Brain ([2]; ref Fridén [2009]) | Kp,uu,Brian ([2]; ref Fridén [2009]) | efflux ratio at 2 h, 2 µM (P-gp (human MDR1) [1]) | efflux ratio at 2 h, 2 µM ([3]; LLC-PK1, pH 7.4) | recovery at 2 h, 2 µM (in vitro; [6]) [%] | recovery at 2 h, 2 µM (P-gp (human MDR1) [4]; LLC-PK1, pH 7.4) [%] | also measured |
| --- | --- | --- | --- | --- | --- | --- | --- | --- | --- | --- | --- |
| CCC1(c2cnc[nH]2)Cc2ccccc2C1 [Atipamezole] | 33.7 ± 5.21 | 27.6 ± 1.5 | 30.2 ± 4.52 | 33.9 ± 1.72 |  |  |  |  |  |  | Kp, Brain ([2]; ref Li [2019]): 4.40; Kp,uu,Brian ([2]; ref Li [2019]): 1.700 |
| Nc1nnc(-c2cccc(Cl)c2Cl)c(N)n1 [Lamotrigine] |  |  |  |  | 2.02 | 0.880 |  |  |  |  |  |
| CC(C)NCC(O)COc1cccc2ccccc12 (stereo not shown) [Propranolol] | 16.8 ± 0.09 | 16.1 ± 1.46 | 20.1 ± 0.71 | 22.8 ± 2.13 | 16.37 | 0.61 | 0.96 | 0.88 | 90.9 ± 7.14 | 80.7 ± 1.03 |  |
| Nc1c2c(nc3ccccc13)CCCC2 [Tacrine] |  |  |  |  |  |  |  |  |  | 105 ± 4.23 | Kp, Brain ([2]; rat, in vivo): 9.56; Kp,uu,Brian ([2]; rat, in vivo): 0.78; Papp B→A at 2 h, 2 µM (in vitro; LLC-PK1, pH 7.4): 27.2 ± 2.27 ×10⁻⁶ cm/s; Papp A→B at 2 h, 2 µM (in vitro; LLC-PK1, pH 7.4, Papp A-B): 30.9 ± 1.76 ×10⁻⁶ cm/s; recovery at 2 h, 2 µM (in vitro): 114 ± 3.02%; Papp B→A at 2 h, 2 µM (P-gp (human MDR1) [4]; LLC-PK1, pH 7.4): 34.1 ± 2.16 ×10⁻⁶ cm/s; Papp A→B at 2 h, 2 µM (P-gp (human MDR1) [4]; LLC-PK1, pH 7.4, Papp A-B): 23.6 ± 1.1 ×10⁻⁶ cm/s |
| CC(NC(C)(C)C)C(=O)c1cccc(Cl)c1 (stereo not shown) [Bupropion] | 26.6 ± 2.58 | 19.5 ± 1 | 23.8 ± 0.67 | 27.3 ± 2.88 | 9.78 | 2.000 |  |  |  |  |  |
| CN(C)CCOC(c1ccccc1)c1ccccc1 [Diphenhydramine] |  |  |  |  |  |  |  |  | 101 ± 7.46 |  |  |
| C=C[C@H]1C[N@@]2CC[C@H]1C[C@@H]2[C@@H](O)c1ccnc2ccc(OC)cc12 [Quinidine] | 2.48 ± 1.06 | 42.9 ± 2.11 | 17.2 ± 2.85 | 23.4 ± 0.37 |  |  |  |  | 99.1 ± 15.6 | 98.7 ± 14.8 | Kp, Brain ([2]; ref Nicolaï [2020]): 0.32; Kp,uu,Brian ([2]; ref Nicolaï [2020]): 0.036 |
| COc1ccc2c(c1)c(CC(=O)O)c(C)n2C(=O)c1ccc(Cl)cc1 [Indomethacin] | 14.9 ± 1.29 | 20.3 ± 2.74 | 18.9 ± 0.31 | 16.1 ± 2.07 | 0.01 | 0.11 | 1.36 | 1.18 | 109 ± 5.97 | 99.7 ± 4.24 |  |
| COc1cccc(C2(O)CCCCC2CN(C)C)c1 (stereo not shown) [Tramadol] | 26.3 ± 1.05 | 25.2 ± 1.1 | 23.3 ± 1.43 |  | 5.29 | 1.46 | 0.96 | 0.85 |  | 109 ± 2.73 | Papp A→B at 2 h, 2 µM ([3]; LLC-PK1, pH 7.4): 27.3 ± 0.2 ×10⁻⁶ cm/s; recovery at 2 h, 2 µM (in vitro): 113 ± 3.59% |
